Test results: paper PMC9644404, “Mechanistic Insights into the Activation of Lecithin–Cholesterol Acyltransferase in Therapeutic Nanodiscs Composed of Apolipoprotein A-I Mimetic Peptides and Phospholipids” (Molecular Pharmaceutics, 2022)

Assays:
[1] = QCM: adsorption of nanodiscs on silica sensor; format: physicochemical; settings: nanodiscs 0.15 mg/mL in PBS, 150 μL/min, 5 min, 20 °C, versus 22A
Method: Impedance-based QCM instrument QCM-Z500 (KSV Instruments Ltd., Helsinki, Finland) was used for the measurements. The temperature was kept constant at 20 °C. Before measurements, silica-coated sensors (Q-Sense Inc./Biolin Scientific, Västra Frölunda, Sweden) were flushed with 70% (v/v) ethanol and ultrapure water, dried under nitrogen flow, and oxygen-plasma-treated (PDC-002; Harrick Plasma, Ithaca, NY) for 5 min at 29.6 W and 133–173 Pa. Samples were injected into the flow channel using a peristaltic pump system. After the baseline of the signal at different frequency overtones (3, 5, and 7) was stabilized in PBS, a nanodisc surface was formed by flowing nanodisc solution (0.15 mg/mL in PBS, 150 μL/min) on the sensor for 5 min, until the signal was again stabilized. Flow speed was then decreased to 75 μL/min for 5 min of flow with PBS to ensure a solid, uniform nanodisc surface. Next, 10 nM (0.47 μg/mL) LCAT was then injected through the flow channel at 75 μL/min for 17 min. Then, the running solution was again changed to PBS to see the frequency signal stabilize. All measurements were performed three times; between measurements, the sensor and the flow channel were cleaned in situ by 3 min sequential injections of 20 mM CHAPS, 2% (v/v) Hellmanex, 70% (v/v) ethanol, and ultrapure water at 150 μL/min. […]

LCAT [2] = experiment: QCM: LCAT binding to peptide-lipid nanodiscs on sensor; parameters: species or system human; settings: for adsorption of LCAT on the discs (in words): 10 nM LCAT in PBS, 20 °C, versus 22A; for estimated number of LCAT enzymes bound per disc: calculated from adsorbed mass after LCAT injection (10 nM LCAT in PBS, 75 μL/min, 17 min, 20 °C), DMPC nanodiscs, three measurements
From the text: (§1) ApoA-I mimetic peptides 22A ([…]), 22A-K22Q ([…]), and 22A-R7Q ([…]) were obtained from Peptide Protein Research Ltd. (Fareham, UK). 1,2-Dimyristoyl-sn-glycerol-3-phosphocholine (DMPC), 1,2-dipalmitoyl-sn-glycerol-3-phosphocholine (DPPC), and ergosta-5,7,9,(11),22-tetra-3beta-ol (dehydroergosterol, DHE) were purchased from Avanti Polar Lipids Inc. (Alabaster, AL). Recombinant human lecithin cholesterol acyltransferase (LCAT) was synthesized by ProSpec-Tany TechnoGene Ltd. (East Brunswick, NJ). Cholesterol oxidase (COx) was obtained from Sigma-Aldrich (St. Louis, MO).
Before QCM measurements, the LCAT stock solution was prepared by dissolving 10 μg of LCAT in 500 μL of PBS. The solution was centrifuged (14 000g) twice through Amicon Ultra-0.5, 10 kDa cutoff filter (Sigma-Aldrich) for buffer exchange and purification. The retentate was diluted to a total volume of 500 μL (PBS) after each step. Prepared 20 μg/mL (∼430 nM) LCAT solution was stored in −20 °C before further use.
Impedance-based QCM instrument QCM-Z500 (KSV Instruments Ltd., Helsinki, Finland) was used for the measurements. The temperature was kept constant at 20 °C. Before measurements, silica-coated sensors (Q-Sense Inc./Biolin Scientific, Västra Frölunda, Sweden) were flushed with 70% (v/v) ethanol and ultrapure water, dried under nitrogen flow, and oxygen-plasma-treated (PDC-002; Harrick Plasma, Ithaca, NY) for 5 min at 29.6 W and 133–173 Pa. Samples were injected into the flow channel using a peristaltic pump system. After the baseline of the signal at different frequency overtones (3, 5, and 7) was stabilized in PBS, a nanodisc surface was formed by flowing nanodisc solution (0.15 mg/mL in PBS, 150 μL/min) on the sensor for 5 min, until the signal was again stabilized. Flow speed was then decreased to 75 μL/min for 5 min of flow with PBS to ensure a solid, uniform nanodisc surface. Next, 10 nM (0.47 μg/mL) LCAT was then injected through the flow channel at 75 μL/min for 17 min. Then, the running solution was again changed to PBS to see the frequency signal stabilize. All measurements were performed three times; between measurements, the sensor and the flow channel were cleaned in situ by 3 min sequential injections of 20 mM CHAPS, 2% (v/v) Hellmanex, 70% (v/v) ethanol, and ultrapure water at 150 μL/min. Frequency overtone signals were normalized, baseline corrected, and averaged for each measurement.

[3] = system: recombinant human lecithin cholesterol acyltransferase (LCAT); experiment: LCAT activity assay (DHE esterification in DMPC/DHE/peptide nanodiscs); format: biochemical; settings: relative to 22A, 30 min; for LCAT activity (in words): pH 7.4, 37 °C, fluorescence
From the text: as §1
The LCAT activity assay relies on the integration of DHE in the nanodisc structure as a substrate for LCAT. DHE is a naturally occurring fluorescent sterol analog; the presence of three conjugated double bonds in the steroid ring system gives this probe a slight fluorescence in the near-UV region of the spectrum.[42] As a consequence of the acyltransferase activity of LCAT, DHE in the PL bilayer is stored in the inner core of sHDL as DHE-ester. The esterification of DHE causes a shift in the sterol analog emission wavelength from 372 to 425 nm; this shift, together with the use of COx, which selectively renders the unesterified DHE nonfluorescent, allows the exclusive detection and quantification of the DHE-ester. This provides information about the LCAT–sHDL interaction and activity.[43],[44] sHDL containing the fluorescent sterol DHE for LCAT activity assay was prepared via thermal cycling method. In a glass vial, DMPC and DHE in chloroform were combined at a 9:1 molar ratio and were first dried with Rotavapor R-200 at room temperature for 1–2 h and then an additional 1 h under nitrogen flow at room temperature. […] After this, the plates went through a second round of incubation at 37 °C with gentle shaking (250 rpm/h) for 1 h to extinguish the fluorescence of unesterified DHE. After re-equilibrating the plate at room temperature, DHE fluorescence was detected at an excitation wavelength of 325 nm and an emission wavelength of 425 nm using Varioskan LUX (Thermo Scientific, Waltham, MA). […]

LCAT [4] = settings: cited from earlier work
From the text: Therefore, this has long been a sought-after property of synthetic HDL-mimetic nanodiscs and apoA-I mimetic peptides. The nativelike maturation of the nanodiscs by lecithin–cholesterol acyltransferase (LCAT) has been regarded as a desired feature as it would lead to the esterification of free CHOL and the formation of hydrophobic cholesteryl ester (CE)-rich core. […] The ... || To investigate the location, conformation, and dynamics of apoA-Imimetic peptides in nanodiscs in silico, we complexed coarse-grained models of DMPC lipids with models of apoA-Imimetic peptides 22A and 22A-K and simulated the systems up to 80 μs, measured in the effective Martini force field time. To prepare the systems, 200 lipids and 28 peptides were placed randomly into the simulation box, and after a short vacuum simulation to compress them, the systems were solvated. Equilibrated nanodiscs formed rapidly after starting the production runs. The proteolytic removal of C-terminal lysine of 2 ... || (+ 2 further places)

LCAT [5] = settings: cited from earlier work; remark: listed apart in the source
From the text: The ... || The formation of acyl intermediate of LCAT requiring the entry of PCs into the active site is another important factor in LCAT activity. […] We have also ...

Sequence | adsorption of nanodiscs on the sensor (in words) [1] | adsorption of LCAT on the discs (in words) (LCAT [2]) | estimated number of LCAT enzymes bound per disc (LCAT [2]) | LCAT activity (in words) [3] | decrease of CHOL esterification on removal of K22 (LCAT [4]; 22A without C-terminal K22 versus 22A) | LCAT activation on removal of C-terminal lysine (in words) (LCAT [4]; proteolytic removal in serum) | effect on phospholipolytic action of LCAT on removal of K22 (in words) (LCAT [5]) | LCAT activation (in words) (LCAT [4]; versus native apoA-I) | decrease of LCAT activity ([3]; lipid:peptide 2:1 w/w, DHE 0-35 μM, LCAT 7 μg/mL, PBS + 1 mM EDTA + 60 μM albumin pH 7.4, 37 °C, fluorescence 325/425 nm, triplicate, two independent experiments)
PVLDLFQELLNELLEALKQKLK [22A-R7Q, 22A variant with charge neutralization of residue R7] | decreased adsorption of nanodiscs on the sensor | reduced the adsorption of LCAT on the discs | one LCAT was attached to every five nanodiscs | nearly identical activity with 22A | – | – | – | – | –
PVLDLFRELLNELLEALKQKL [22A-K, 22A without C-terminal lysine K22] | – | – | – | – | ~60% | significantly reduces LCAT activation | no effect on phospholipolytic action mediated by LCAT | – | –
PVLDLFRELLNELLEALKQKLK [22A, apoA-I mimetic peptide 22A (Esperion Therapeutics, ESP24218)] | – | – | approximately one LCAT was bound to every two nanodiscs | – | – | – | – | activate LCAT nearly as well as native apoA-I | –
PVLDLFRELLNELLEALKQKLQ [22A-K22Q, 22A variant with charge neutralization of residue K22] | decreased adsorption of nanodiscs on the sensor | reduced the adsorption of LCAT on the discs | one LCAT was attached to every five nanodiscs | decreased the LCAT activation potency | – | – | – | – | 50%
